Experimental data from US20250161478A1, “LINKER PAYLOADS AND CONJUGATES THEREOF” (priority 2021, published 2025).
Read-outs that look alike come from different tables or passages of the source.

Experiments:
[1] = tested on: B16-F10 mouse melanoma tumors; test: In vivo efficacy of PNU-ADCs in B16-F10 mouse melanoma model (Example 31); set-up: species or system mice
Method: In vivo anti-tumor efficacy of anti-TYRP1 ADCs (TAPeD, FLPeD, CHPeD and FLCPeMg) was evaluated in the B16-F10 mouse melanoma model as described above. […] Tumor growth was followed by palpation, and ADC dosings were administered when tumor sizes reached 60-110 mm^3, between 2-7 days after the inoculation. […] A single i.v. injection of 5 mg/kg ADC in PBS was given on the injection day and the tumor sizes were followed for at least 28 days. […] Another xenograft experiment was performed similarly as above. In this experiment, 10 xenografted mice received no treatment, while 10 xenografted mice were given three i.v. doses of 10 mg/kg TA99 antibody on days 2, 7 and 12 after the inoculation (3×10 mg/kg at 5 day intervals). In every one of these 20 mice the tumors grew to >200 mm^3 during 28 days' follow-up period.

[2] = In vivo tolerability of PNU-ADCs in normal mice; set-up: species or system C57BL/6J mice; details: for Dose-limiting toxicity dose level / MTD (maximum tolerated dose): single i.v. dose; for Dose-limiting toxicity dose level: n=3, followed up to 30 days; for MTD (maximum tolerated dose): n=3, next lower dose below the dose-limiting toxicity dose level
Method: Tolerability and safety of ADCs conjugated with PNU-EDA linker-payloads were tested in normal C57BL/6J mice. Female young adult mice at the age of 8-10 weeks were used, 3 mice/group (n=3). […] Clinical signs, body weight and general behavior of the animals were observed regularly. Dose-limiting toxicity was observed as either over 10% reduction of average body weight in the group or acute toxicity in any animal in the group. Maximum tolerated dose (MTD) was determined as the next lower dose below the dose-limiting toxicity dose level. ADCs were prepared as described above and a single i.v. dose of the ADC was given on the first day of the study. The mice were followed for up to 30 days if no dose-limiting toxicity was observed.

[3] = tested on: IGR-1 human melanoma cells; test: Cytotoxicity of ADCs, PrestoBlue cell viability, IGR-1 cells; format: cell-based
Method: (§1) Toxicity of anti-TYRP ADCs was tested with SK-MEL-28 (ATCC: HTB®-72™) SK-MEL-30 (DSMZ: ACC 151) and/or IGR-1 (DSMZ: ACC 236) human melanoma cells.
IGR-1 cells were seeded in 96-well plate, 2000 cells/well, and cultivated in 10% FBS/DMEM-medium under standard cell culture conditions. After overnight culture, the diluted ADCs or unconjugated antibodies (concentration range 0.1 nM-300 nM) were added to cells, and incubated for 3-5 days. The viability of the cells was evaluated with PrestoBlue cell viability reagent.
(§2) The AVG % values and standard deviations were transferred to GraphPad Prism 9.1.2.

[4] = tested on: SK-MEL-30 human melanoma cells; test: Cytotoxicity of ADCs, PrestoBlue cell viability, SK-MEL-30 cells; format: cell-based; details: incubated 3-5 days, ranges are over n experiments
Method: as §1
SK-MEL-30 were seeded in 96-well plate, 2000 cells/well or 3000 cells/well and cultivated in 10% FBS/RPMI 1640-medium under standard cell culture conditions. After overnight culture, diluted ADCs or antibodies were added to the cells, and incubated for 3-5 days. For cell control, the cells were treated with medium without ADC. The viability of the cells was evaluated with PrestoBlue cell viability reagent.
as §2

[5] = tested on: B16-F10 mouse melanoma tumors; test: In vivo efficacy in B16-F10 syngeneic tumor mice (Example 9); set-up: species or system C57BL/6J mice; details: single i.v. 5 mg/kg two days after inoculation, six mice/group
Text: In vivo anti-tumor efficacy of ADC of monoclonal TA99 IgG2a antibody, glycoconjugated TA99 ADC with DBCO-Val-Ser(GlcA)-EDA-PNU payloads (TA99-PNU ADC, DAR=2) and TA99 ADC with maleimidoacetyl-EDA-PNU payloads (TA99-M-PNU ADC, DAR=4), prepared and maleimide-stabilized as described above, was compared to non-treated mice. B16-F10 mouse melanoma cells were obtained from the ATCC (USA) and cultured according to the manufacturer's instructions to study efficacy of antibody-drug conjugates in highly treatment-resistant syngeneic tumors in female adult C57BL/6J mice at the age of about 8-weeks. […] Tumor growth was followed by palpation. […] The first dosings were administered two days after the inoculation due to the high take rate and very rapid growth of the tumors. Mice were randomly divided into study groups. […] Unconjugated antibody (TA99/anti-gp75, Invivogen) was used in this study as the control treatment.

[6] = tested on: HL-60 acute myeloid leukemia (AML) cell xenograft tumors; test: In vivo efficacy of anti-CD33 ADCs in HL-60 leukemia xenograft; details: single i.v. 10 mg/kg
Method: In vivo anti-leukemia xenograft efficacy was evaluated for anti-CD33 ADCs LNAuM (DAR=8.0) and GMAuM (DAR=8.0), as well as anti-CD33 antibodies LN and GM. HL-60 acute myeloid leukemia (AML) cells were obtained from the ATCC and cultured according to the manufacturer's instructions. The study was performed at the TCDM/Central Animal Laboratory, University of Turku, Finland, according to the appropriate ethical committee approval. Cells for inoculation to mice were prepared in vigorous exponential growth phase. 2 million cells in 50% Matrigel were inoculated s.c. to the flank of each mouse (female athymic nude mice between 8-10 weeks of age). Clinical signs and general behavior of the animals was observed regularly. […] Tumor growth was followed by palpation. After caliper measurement, tumor volume was calculated according to 0.5×length×width^2. The first dosings were administered when average tumor volume reached 100 mm^3. […] Intravenous (i.v.) treatment of 10 mg/kg either antibody or ADC in PBS was given once (single dose regimen), while the control group received no treatment.

[7] = ADC concentration in serum by ELISA (systemic exposure); format: in vivo, mice; details: trapezoidal method, 10 mg/kg i.v.
Method: Serum samples (from 40 μl blood) were taken from each mouse in the treatment groups as well as two mice in the control group to follow systemic exposure of the compounds on day 1, day 5 and day 9 after dosing. ADC concentrations in the serum samples were analyzed by ELISA using FastELISA Human immunoglobulin quantification kit (RD-Biotech) according to the manufacturer's instructions. Between 1 d-9 d, LNAuM had better systemic exposure than GMAuM and GMAuM was eliminated faster from circulation by Day 9 than LNAuM.

KG-1 cells = test: Cytotoxicity of anti-CD33 ADCs in KG-1 cells; format: cell-based; details: for IC50: KG-1 cells treated for 3 or 4 days, n = 3
Text: as §2

[8] = tested on: Ramos.2G6.4C10 (no CD33 expression) cells; test: Cytotoxicity of anti-CD33 ADCs in Ramos cells; format: cell-based
Text: as §2

[9] = tested on: Daudi (no CD33 expression) cells; test: Cytotoxicity of anti-CD33 ADCs in Daudi cells; format: cell-based
Text: as §2

HL-60 cells = test: Cytotoxicity of anti-CD33 ADCs in HL-60 cells; format: cell-based; details: HL-60 cells treated for 5 days
Text: as §2

MOLM-13 cells = test: Cytotoxicity of anti-CD33 ADCs in MOLM-13 cells; format: cell-based; details: MOLM-13 cells treated for 3 days
Text: as §2

K-562 (low CD33) cells = test: Cytotoxicity of anti-CD33 ADCs in K-562 cells; format: cell-based; details: K-562 (low CD33) cells treated for 3 days
Text: as §2

[10] = tested on: CD33- cell lines Ramos and Daudi versus CD33+ cells; test: In vitro therapeutic window, CD33- versus CD33+ cell lines; format: cell-based; details: IC50 not reached at 300 nM in Ramos and Daudi versus CD33+ cells
[11] = single 5 mg/kg i.v. dose on days 2-7 when tumors reach 60-110 mm^3, 6 mice/group, at least 28 days
[12] = 5 mice/group, 30 days follow-up

For “Chimeric TA99-DBCO-Val-Ser(G1cA)-EDA-PNU [CHPeD]”, the “Number of mice with <200 mm^3 tumor at end of study” value (shortened to “Number of mice with <200 mm^3 tumor”) [1, 11] was 2.
With “FLCPeMa: cysteine engineered flanvotumab HC N299C conjugated with PeMa (MA-Ac-EDA-PNU), DAR 1.7” the “Dose-limiting toxicity dose level” value [2] was 20 mg/kg and the “MTD (maximum tolerated dose)” value [2] was 15 mg/kg.
In the case of “FLCPeMala: cysteine engineered flanvotumab HC N299C conjugated with PeMala (MA-Ac-β-Ala-EDA-PNU), DAR 2.0”, the “IC50 values against IGR-1 cells (in words)” value (“IC50 values” below) [3] is reported as “picomolar” and the “MTD (maximum tolerated dose)” value [2] is reported as 5 mg/kg.
In the case of “FLCPeMg: cysteine engineered flanvotumab HC N299C conjugated with PeMg (MA-Ac-β-Ala-VS(GlcA)-EDA-PNU), DAR 2.2”, the “IC50 values” value [3] is reported as “picomolar”, the “Number of mice with <200 mm^3 tumor” value [1, 11] is reported as 2 and the “Dose-limiting toxicity dose level” value [2] is reported as 12.5 mg/kg.
With “Flanvotumab-DBCO-Val-Ser(GlcA)-EDA-PNU [FLPeD]” the “IC50 values” value [3] was “picomolar”, the IC50 [4] was 1.3 to 8.2 nM and the “Number of mice with <200 mm^3 tumor” value [1, 11] was 2. For the same substance, the “Dose-limiting toxicity dose level” value [2] was 15 mg/kg and the “MTD (maximum tolerated dose)” value [2] was 10 mg/kg.
In the case of TA99, the “tumor growth (in words)” value [5] is reported as “tumors grew rapidly”, the “Number of mice with <200 mm^3 tumor” value ([1]; 3 × 10 mg/kg i.v. on days 2, 7 and 12 after inoculation, 10 mice/group, 28 days) is reported as 0 and the “toxicity (in words)” value ([2]; 20 mg/kg or 30 mg/kg) is reported as “No toxicity was observed”.
With gemtuzumab the “tumor growth (in words)” value [6, 12] was “tumors grew fast”.
For “gemtuzumab-maleimidoacetyl-β-Ala-Val-Ser(Glc)-PAB-MMAU [GMAuM]”, the “toxicity (in words)” value [6] was “no toxicity was detected”, the “mice in which tumors disappeared without regrowth” value [6, 12] was 5/5 and the “AUC(1-9 d), partial area under curve between 1 d-9 d” value [7] was 160 mg·days/L.
With lintuzumab the “Unconjugated antibody: no effect up to (highest concentration tested)” value (“Unconjugated antibody: no effect up” for short) (KG-1 cells; KG-1 cells) was over 300 nM, the “Unconjugated antibody: no effect up” value ([8]; Ramos cells) was over 300 nM and the “Unconjugated antibody: no effect up” value [9] was over 300 nM. For the same substance, the “duration of tumor growth inhibition” value ([6]; 5 mice/group) was “about 20 days”.
With “lintuzumab-maleimidoacetyl-β-Ala-Val-Ser(Glc)-PAB-MMAU [LNAuM]” the IC50 (HL-60 cells; n = 4, read-out: IC50 (AVG ± standard deviation)) was 0.272 ± 0.181 nM, the IC50 (HL-60 cells; range over n experiments, read-out: IC50) was 0.024 to 0.459 nM and the IC50 (MOLM-13 cells; n = 3, read-out: IC50 (AVG ± standard deviation)) was 0.039 ± 0.016 nM. It also gave an IC50 (MOLM-13 cells; read-out: IC50) of 0.023 to 0.055 nM, an IC50 (KG-1 cells; read-out: IC50) of 0.144 to 0.313 nM and an IC50 (KG-1 cells; read-out: IC50 (AVG ± standard deviation)) of 0.242 ± 0.088 nM. It also gave an IC50 (K-562 (low CD33) cells) of 24 to 66 nM, an IC50 ([8]; Ramos.2G6.4C10 cells, no CD33 expression) of over 300 nM and an IC50 ([9]; no CD33 expression, treated for 3 days) of over 300 nM. The “toxicity (in words)” value [6] was “no toxicity was detected”, the “mice in which tumors disappeared without regrowth” value [6, 12] was 5/5 and the “AUC(1-9 d), partial area under curve between 1 d-9 d” value [7] was 200 mg·days/L. For the same substance, the “in vitro therapeutic window” value [10] was “greater than 10000”.
